Data set [1] can be described thus: Pharmacokinetics after intravenous bolus injection. It counts as in vivo, rat. As to the method:
Adult male Wistar rats weighing between 180 and 240 g were used to determine the pharmacokinetics of GPE and G2MePE. To facilitate intravenous bolus injections and blood sampling, all rats were surgically implanted with an indwelling jugular venous cannula under halothane anesthesia three days before the experiment. Groups of six rats were given a single intravenous bolus injection of either 30 mg/kg GPE or 10 mg/kg G2MePE dissolved in 0.1M succinate buffer (pH 6.5). Blood samples (about 220 μl each) were collected into heparinized tubes containing Sigma protease inhibitor cocktail for mammalian tissues at 10 and 0 min before injection of either GPE or G2MePE, and 1, 2, 4, 8, 16, 32, 64 and 128 min after injection of either GPE or G2MePE. The samples were centrifuged at 3000 g for 15 min at 4° C. and the plasma removed and stored at −80° C. until extraction and assay by either radioimmunoassay (“RIA”) or reverse phase HPLC. The RIA and HPLC methods used were conventional.
The k and half-life (t1/2) were calculated from the slope of the linear regression line in the elimination phase of the semi-logarithmic plot of plasma concentration versus time as: Log C=−kt/2.3+log C0. Results were expressed as mean±standard error.

A further data set relates to MeCP2 knock-out mice. To be noted: MeCP2 knock-out model; cited from earlier work.
The test system of data set [2] is cortical neurons injured with okadaic acid. As to the kind of experiment: In vitro neuroprotection, cortical cultures injured with okadaic acid (MTT). It is filed as cell-based, rat. As to conditions: 10 μM; okadaic acid injury; 24 hours incubation; MTT-assay. As to the method: A dam was sacrificed by CO2-treatment, and then was prepared for caesarean section. After surgery, the embryos were removed from their amniotic sacs and decapitated. The heads were placed on ice in DMEM/F12 medium for striatum and PBS+0.65% D(+)-glucose for cortex.
The two cortical hemispheres were carefully removed by spatula from the whole brain with the ventral side facing upside into a PBS+0.65% D(+)-glucose containing petri dish. Forceps were put into the rostral part (near B. olfactorius) of the cortex in order to fix the tissue and two lateral-sagittal oriented cuts were made to remove the […] and entorhinal cortices. […]
The cells were triturated once with a glass Pasteur pipette in 1 ml of Neurobasal/B27 medium and subsequently twice by using a 1 ml insulin syringe with a 22 gauge needle. […] Cells were counted and adjusted to 50,000 cells per 60 μl. […]
To cause toxic injury to neurons, we exposed neurons to 1:100 parts of okadaic acid at concentrations of 30 nM or 100 nM and 0.5 mM 3-nitropropionic acid (for cerebellar microexplants only). […] The survival rate was determined by a colorimetric end-point MTT-assay at 595 nm in a multi-well plate reader. For the cerebellar microexplants four windows (field of 0.65 mm^2) with highest cell density were chosen and cells displaying neurite outgrowth were counted.

Structures are written as SMILES.

With `NCC(=O)N1CCC[C@H]1C(=O)N[C@@H](CCC(=O)O)C(=O)O` [GPE, glycyl-L-prolyl-L-glutamic acid, reference compound], the degradation result in data set [1] (in vivo and in vitro) is listed as “rapidly degraded”. The same compound showed a first order rate constant in data set [1] (single i.v. bolus, GPE 30 mg/kg, G-2-MePE 10 mg/kg) of 0.15 ± 0.014 min⁻¹. The peak plasma concentration in data set [1] (single i.v. bolus, GPE 30 mg/kg, G-2-MePE 10 mg/kg, mean±standard error) worked out at 40 ± 10.8 µg/mL. In addition, the “life span and neuronal function” value with MeCP2 knock-out mice is “prolong life and increase neuronal function”. In addition, in data set [2], the neuroprotection came out at 64%.

The record behind these values is patent US20150224164A1, “TREATMENT OF AUTISM SPECTRUM DISORDERS USING GLYCYL-L-2-METHYLPROLYL-L-GLUMATIC ACID” (Neuren Pharmaceuticals Limited, priority 2013, published 2015).
